Test results taken from US9765035B2 (priority 2013, dated 2017).
Where two headings read alike, the source gives them in different places.

Tests used:
human PRMT6 = human PRMT6 (Homo sapiens, UniProt Q96LA8); assay: biochemical
Description: General Materials. S-adenosylmethionine (SAM), S-adenosylhomocysteine (SAH), bicine, Tween20, dimethylsulfoxide (DMSO), bovine skin gelatin (BSG), sodium butyrate and Tris(2-carboxyethyl)phosphine hydrochloride solution (TCEP) were purchased from Sigma-Aldrich at the highest level of purity possible. ^3H-SAM was purchase from American Radiolabeled Chemicals with a specific activity of 80 Ci/mmol. 384-well streptavidin Flashplates were purchased from PerkinElmer.
Substrates. Peptide representative of human histone H4 residues 36-50 was synthesized with an N-terminal linker-affinity tag motif and a C-terminal amide cap by 21st Century Biochemicals. The peptide was purified by high-performance liquid chromatography (HPLC) to greater than 95% purity and confirmed by liquid chromatography mass spectrometry (LC-MS). The sequence was Biot-Ahx-[…]-amide and contained a monomethylated lysine at position 44 (SEQ ID NO.:5).
Molecular Biology: Full-length human PRMT6 (NM_018137.2) transcript clone was amplified from an HEK 293 cDNA library, incorporating a flanking 5′ sequence encoding a FLAG tag ([…]) (SEQ ID NO.:6) fused directly to Ser 2 of PRMT6 and a 3′ sequence encoding a hexa His sequence (HHHHHH) (SEQ ID NO.: 17) fused directly to Asp 375. The amplified gene was subcloned into pFastBacMam (Viva Biotech).
Protein Expression. Recombinant baculovirus were generated according to Bac-to-Bac kit instructions (Life Technologies). […] Infections were carried out at 37° C. for 48 hours, harvested by centrifugation, and stored at −80° C. for purification.
Protein Purification. […] Column was washed with 20 mM imidazole in the same buffer and Flag-PRMT6-His was eluted with 150 mM imidazole. Pooled fractions were dialysed against buffer Ni-A and further purified by anti-flag M2 affinity chromatography. Flag-PRMT6-His was eluted with 200 ug/ml FLAG peptide in the same buffer. Pooled fractions were dialysed in 20 mM Tris, 150 mM NaCl, 10% glycerol and 5 mM β-mercaptoethanol, pH 7.8. The purity of recovered protein was 95%.
General Procedure for PRMT6 Enzyme Assays on Peptide Substrates. The assays were all performed in a buffer consisting of 20 mM Bicine (pH=7.6), 1 mM TCEP, 0.005% BSG, and 0.002% Tween 20, prepared on the day of use. Compounds in 100% DMSO (1 ul) were spotted into a polypropylene 384-well V-bottom plates (Greiner) using a Platemate Plus outfitted with a 384-channel head (Thermo Scientific). DMSO (1 ul) was added to Columns 11, 12, 23, 24, rows A-H for the maximum signal control and 1 ul of SAH, a known product and inhibitor of PRMT6, was added to columns 11, 12, 23, 24, rows I-P for the minimum signal control. A cocktail (40 ul) containing the PRMT6 enzyme was added by Multidrop Combi (Thermo-Fisher). The compounds were allowed to incubate with PRMT6 for 30 min at room temperature, then a cocktail (10 ul) containing SAM and peptide was added to initiate the reaction (final volume=51 ul). The final concentrations of the components were as follows: PRMT6 was 1 nM, ^3H-SAM was 200 nM, non-radiolabeled SAM was 250 nM, peptide was 75 nM, SAH in the minimum signal control wells was 1 mM, and the DMSO concentration was 2%. The assays were stopped by the addition of non-radiolabeled SAM (10 ul) to a final concentration of 400 uM, which dilutes the ^3H-SAM to a level where its incorporation into the peptide substrate is no longer detectable. 50 ul of the reaction in the 384-well polypropylene plate was then transferred to a 384-well Flashplate and the biotinylated peptides were allowed to bind to the streptavidin surface for at least 1 hour before being washed once with 0.1% Tween20 in a Biotek EL×405 plate washer. The plates were then read in a PerkinElmer TopCount plate reader to measure the quantity of ^3H-labeled peptide bound to the Flashplate surface, measured as disintegrations per minute (dpm) or alternatively, referred to as counts per minute (cpm). […]

[1] = system: RKO cells, mono-methyl arginine; assay: RKO Methylation Assay (In Cell Western for mono-methyl arginine); type: cell-based; settings: Homo sapiens, 72 hours
Description: RKO adherent cells were purchased from ATCC (American Type Culture Collection), Manassas, Va., USA. DMEM/Glutamax medium, penicillin-streptomycin, heat inactivated fetal bovine serum, 0.05% trypsin and D-PBS were purchased from Life Technologies, Grand Island, N.Y., USA. Odyssey blocking buffer, 800CW goat anti-rabbit IgG (H+L) antibody, and Licor Odyssey infrared scanner were purchased from Licor Biosciences, Lincoln, Nebr., USA. Mono-methyl arginine antibody was purchased from Cell Signaling Technology, Danvers, Mass., USA. Methanol was purchased from VWR, Franklin, Mass., USA. 10% Tween 20 was purchased from KPL, Inc., Gaithersburg, Md., USA. DRAQ5 was purchased from Biostatus Limited, Leicestershire, UK.
RKO adherent cells were maintained in growth medium (DMEM/Glutamax medium supplemented with 10% v/v heat inactivated fetal bovine serum and 100 units/mL penicillin-streptomycin) and cultured at 37° C. under 5% CO2.
Cell Treatment, in Cell Western (ICW) for Detection of Mono-Methyl Arginine and DNA Content. […] Compound (100 nL) from a 96-well source plate was added directly to 384 well cell plate. Plates were incubated at 37° C., 5% CO2 for 72 hours. After three days of incubation, plates were brought to room temperature outside of the incubator for ten minutes and blotted on paper towels to remove cell media. 50 μL of ice cold 100% methanol was added directly to each well and incubated for 30 min at room temperature. After 30 min, plates were transferred to a Biotek EL406 plate washer and washed 2 times with 100 μL per well of wash buffer (1×PBS). Next 60 μL per well of Odyssey blocking buffer (Odyssey Buffer with 0.1% Tween 20 (v/v)) were added to each plate and incubated 1 hour at room temperature. Blocking buffer was removed and 20 μL per well of primary antibody was added (mono-methyl arginine diluted 1:200 in Odyssey buffer with 0.1% Tween 20 (v/v)) and plates were incubated overnight (16 hours) at 4° C. Plates were washed 5 times with 100 μL per well of wash buffer. […] The plates were washed 5 times with 100 μL per well wash buffer then 2 times with 100 μL per well of water. Plates were allowed to dry at room temperature then imaged on the Licor Odyssey machine which measures integrated intensity at 700 nm and 800 nm wavelengths. Both 700 and 800 channels were scanned.
Calculations: First, the ratio for each well was determined by:
Each plate included fourteen control wells of DMSO only treatment (minimum activation) as well as fourteen control wells for maximum activation treated with 20 μM of a reference compound. The average of the ratio values for each control type was calculated and used to determine the percent activation for each test well in the plate. Reference compound was serially diluted three-fold in DMSO for a total of nine test concentrations, beginning at 20 μM. Percent activation was determined and EC30 curves were generated using triplicate wells per concentration of compound.

[2] = biochemical evaluation, peptide substrate, read-out: PRMT6 IC50
[3] = single experiment or average of multiple experiments, read-out: PRMT6 biochemical evaluation (numerical)
[4] = In Cell Western EC30, RKO cells, single experiment or average of multiple experiments, read-out: RGG ICW
[5] = In Cell Western, RKO cells, read-out: RGG ICW EC30

Chain of human PRMT6 (Q96LA8 with tags, fused parts or gaps): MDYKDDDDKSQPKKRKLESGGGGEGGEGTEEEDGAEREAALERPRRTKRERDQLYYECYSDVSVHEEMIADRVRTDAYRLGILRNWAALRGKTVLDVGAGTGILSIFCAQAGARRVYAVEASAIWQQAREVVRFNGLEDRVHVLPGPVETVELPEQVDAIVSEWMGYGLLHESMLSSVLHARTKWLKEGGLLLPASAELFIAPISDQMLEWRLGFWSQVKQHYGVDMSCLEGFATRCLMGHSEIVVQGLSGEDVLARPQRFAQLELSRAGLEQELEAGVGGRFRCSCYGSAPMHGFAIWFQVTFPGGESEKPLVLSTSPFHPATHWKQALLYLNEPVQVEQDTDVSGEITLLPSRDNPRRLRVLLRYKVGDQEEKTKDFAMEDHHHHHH

Row | Structure (SMILES) | IC50 (human PRMT6; [2]) [nM] | IC50 (human PRMT6; [3]) [nM] | EC30 [1, 4] [µM] | EC30 [1, 5] [µM]
1 | CN(CCN)Cc1n[nH]c2ccc(OCc3ccccc3)cc12 [Compound 1B] | < 100 | 9.44 | 1.71 | < 3
2 | CC(C)COc1ccc2[nH]nc(CN(C)CCN)c2c1 [Compound 2, N1-((5-iso-butoxy-1H-indazol-3-yl)methyl)-N1-methylethane-1,2-diamine] | 101 to 1000 | 113 | 4.21 | 3.01 to 12
3 | CNCCN(C)Cc1nn(C)c2ccc(OCC(C)C)cc12 [Compound 3, N^1-((5-iso-butoxy-1-methyl-1H-indazol-3-yl)methyl)-N^1,N^2-dimethylethane-1,2-diamine] | 101 to 1000 | 514 | 14 | > 12
4 | CNCCN(C)Cc1n[nH]c2ccc(OCCOC)cc12 [Compound 5, N^1-((5-(2-methoxyethoxy)-1H-indazol-3-yl)methyl)-N^1,N^2-dimethylethane-1,2-diamine] | < 100 | 84.8 | 11.4 | 3.01 to 12
5 | CNCCN(C)Cc1n[nH]c2ccc(OCCCOC)cc12 [Compound 6] | < 100 | 39.3 | 1.55 | < 3
6 | CNCCN(C)Cc1n[nH]c2ccc(OCCc3ccccc3)cc12 [Compound 7] | < 100 | 6.78 | 0.791 | < 3
7 | CNCCN(C)Cc1n[nH]c2ccc(OCCC(C)C)cc12 [Compound 8] | < 100 | 56 | 0.93 | < 3
8 | CNCCN(C)Cc1n[nH]c2ccc(OC(C)Cc3ccccc3)cc12 (stereo not drawn) [Compound 9] | < 100 | 13.9 | 3.43 | 3.01 to 12
9 | CNCCN(C)Cc1n[nH]c2ccc(Oc3ccccc3)cc12 [Compound 10, N^1,N^2-dimethyl-N^1-((5-phenoxy-1H-indazol-3-yl)methyl)ethane-1,2-diamine] | 101 to 1000 | 125 | 3.83 | 3.01 to 12
10 | CNCCN(C)Cc1n[nH]c2ccc(OC3CCCC3)cc12 [Compound 11] | < 100 | 9.68 | 0.724 | < 3
11 | CNCCN(C)Cc1n[nH]c2ccc(OCc3ccccn3)cc12 [Compound 12] | < 100 | 44.1 | 6.06 | 3.01 to 12
12 | CNCCN(C)Cc1n[nH]c2ccc(OCc3ccc(C#N)cc3)cc12 [Compound 13] | < 100 | 4.47 | 3.81 | 3.01 to 12
